Measurements published in patent US10077261B2, “Imidazolin-5-one derivative useful as FASN inhibitors for the treatment of cancer” (Janssen Pharmaceutica NV, priority 2012, dated 2018).

Assays:
[1] = molecular target: T1, hFASN enzyme (full length) (Homo sapiens, UniProt P49327); assay: Fatty Acid Synthase (FASN) inhibition scintillation proximity assay; type: biochemical; conditions: for inhibition at 10 µM: read-out: Human FASN % inhibition @ 10 μM, 10 μM test compound; for IC50: read-out: Human FASN pIC50 (converted)
T1 construct: 10 μL hFASN enzyme (full length, 300 ng, purified in house); made in house
Summary of the method: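 Purified full-length hFASN (300 ng) converts ^3H-acetyl-CoA plus malonyl-CoA to ^3H-palmitate in 100 mM KH2PO4 pH 7.5, 1 mM DTT; compounds tested at 0.01–30 μM. Product captured on streptavidin imaging beads and read by LEADseeker at 610 nm after ≥24 h; 4-parameter logistic fit versus controls.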

A2780 ovarian cells [2] = assay: A2780 ovarian cell proliferation assay in lipid reduced medium, with palmitate (MTT); type: cell-based; conditions: Homo sapiens, A2780, 96 h; read-out: pIC50 A2780 Ovarian Cell, With Palmitate (converted)
Summary of the method: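 Seeded cells were switched next day to lipid-reduced serum, exposed to compound and 25 μM palmitate complexed with fatty-acid-free BSA, and incubated 96 h. Proliferation was then determined by MTT absorbance at 544 nm, with a best-fit curve of signal against concentration.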

A2780 ovarian cells [3] = assay: A2780 ovarian cell proliferation assay in lipid reduced medium, without palmitate (MTT); type: cell-based; conditions: Homo sapiens, A2780, 96 h; read-out: pIC50 A2780 Ovarian Cell, Without Palmitate (converted)
[4] = system: LNCaP-Vancouver prostate cells; assay: In vitro LNCaP Vancouver prostate cell proliferation assay in lipid reduced medium; type: cell-based; conditions: read-out: pIC50 LNCaP_Vancouver prostate cell (converted)
Method: LNCaP-Vancouver prostate cells were obtained from the Vancouver Prostate Cancer Centre. Cells were maintained in RPMI-1640, 10% Fetal Calf Serum (FCS, Hyclone), 2 mM glutamine and 50 μg/ml Gentamicin.
For the proliferation experiment 1500 LNCaP-Vancouver cells per well were seeded in a 384-well black with clear bottom plate (costar 3712BC) in 40 μl RPMI-1640, 10% Lipid reduced serum (LRS, Hyclone), 50 μg/ml Gentamicin and 2 mM Glutamine and incubated at 37° C., 5% CO2. The next day 10 μl of test compound/DMSO diluted in medium was added (3E-5M, 1E-5M, 3E-6M, 1E-6M, 3E-7M, 1E-7M, 3E-8M, 1E-8M final concentration). Compounds were tested in duplicate. After 96 h incubation at 37° C., 5% CO2 25 μl ATP-glow mix was added. The plate was incubated for 30 min at 37° C. and luminescence was measured with the Envision.
Analysis: Determination of pIC50 Values
pIC50 values were calculated as follows.
where mLC and mHC are the means of the low control wells and high control wells on the plate, after manual exclusion of outliers. The relation between the % Controlmin values and concentration was fitted to a 4-parameter logistic curve using a non-linear least squares regression method to determine the pIC50 value. Outlying data points were excluded manually to get a correct fit. The pIC50 corresponds to −log 10(IC50), if the IC50 is expressed in molar units (http://www.ncbi.nlm.nih.gov/books/NBK91994). The IC50 parameter was always determined by non-linear regression, but one or more of the other parameters may have been held fixed on a relevant input value, such as 0 for the bottom values.
For dose response curves with FASN inhibitors in LNCaP-Vancouver or PC-3M-Luc-C6 cells the curves bottom out around 30 to 40% of the control value. A standard fit PL2, forcing the lower bound to this level was used.
Representative compounds of the present invention were tested according to the procedure as described in Biological Example 4a and 4b above, with results as listed in Table 9, below.

[5] = molecular target: Fatty Acid Synthase Keto-reductase Domain (FASN KR) (Homo sapiens, UniProt P49327); assay: Fatty Acid Synthase keto-reductase domain (FASN KR) inhibition, NADPH oxidation at 340 nm
Sequence of Fatty Acid Synthase Keto-reductase Domain (FASN KR) (P49327 whole entry, the tested form may be a part): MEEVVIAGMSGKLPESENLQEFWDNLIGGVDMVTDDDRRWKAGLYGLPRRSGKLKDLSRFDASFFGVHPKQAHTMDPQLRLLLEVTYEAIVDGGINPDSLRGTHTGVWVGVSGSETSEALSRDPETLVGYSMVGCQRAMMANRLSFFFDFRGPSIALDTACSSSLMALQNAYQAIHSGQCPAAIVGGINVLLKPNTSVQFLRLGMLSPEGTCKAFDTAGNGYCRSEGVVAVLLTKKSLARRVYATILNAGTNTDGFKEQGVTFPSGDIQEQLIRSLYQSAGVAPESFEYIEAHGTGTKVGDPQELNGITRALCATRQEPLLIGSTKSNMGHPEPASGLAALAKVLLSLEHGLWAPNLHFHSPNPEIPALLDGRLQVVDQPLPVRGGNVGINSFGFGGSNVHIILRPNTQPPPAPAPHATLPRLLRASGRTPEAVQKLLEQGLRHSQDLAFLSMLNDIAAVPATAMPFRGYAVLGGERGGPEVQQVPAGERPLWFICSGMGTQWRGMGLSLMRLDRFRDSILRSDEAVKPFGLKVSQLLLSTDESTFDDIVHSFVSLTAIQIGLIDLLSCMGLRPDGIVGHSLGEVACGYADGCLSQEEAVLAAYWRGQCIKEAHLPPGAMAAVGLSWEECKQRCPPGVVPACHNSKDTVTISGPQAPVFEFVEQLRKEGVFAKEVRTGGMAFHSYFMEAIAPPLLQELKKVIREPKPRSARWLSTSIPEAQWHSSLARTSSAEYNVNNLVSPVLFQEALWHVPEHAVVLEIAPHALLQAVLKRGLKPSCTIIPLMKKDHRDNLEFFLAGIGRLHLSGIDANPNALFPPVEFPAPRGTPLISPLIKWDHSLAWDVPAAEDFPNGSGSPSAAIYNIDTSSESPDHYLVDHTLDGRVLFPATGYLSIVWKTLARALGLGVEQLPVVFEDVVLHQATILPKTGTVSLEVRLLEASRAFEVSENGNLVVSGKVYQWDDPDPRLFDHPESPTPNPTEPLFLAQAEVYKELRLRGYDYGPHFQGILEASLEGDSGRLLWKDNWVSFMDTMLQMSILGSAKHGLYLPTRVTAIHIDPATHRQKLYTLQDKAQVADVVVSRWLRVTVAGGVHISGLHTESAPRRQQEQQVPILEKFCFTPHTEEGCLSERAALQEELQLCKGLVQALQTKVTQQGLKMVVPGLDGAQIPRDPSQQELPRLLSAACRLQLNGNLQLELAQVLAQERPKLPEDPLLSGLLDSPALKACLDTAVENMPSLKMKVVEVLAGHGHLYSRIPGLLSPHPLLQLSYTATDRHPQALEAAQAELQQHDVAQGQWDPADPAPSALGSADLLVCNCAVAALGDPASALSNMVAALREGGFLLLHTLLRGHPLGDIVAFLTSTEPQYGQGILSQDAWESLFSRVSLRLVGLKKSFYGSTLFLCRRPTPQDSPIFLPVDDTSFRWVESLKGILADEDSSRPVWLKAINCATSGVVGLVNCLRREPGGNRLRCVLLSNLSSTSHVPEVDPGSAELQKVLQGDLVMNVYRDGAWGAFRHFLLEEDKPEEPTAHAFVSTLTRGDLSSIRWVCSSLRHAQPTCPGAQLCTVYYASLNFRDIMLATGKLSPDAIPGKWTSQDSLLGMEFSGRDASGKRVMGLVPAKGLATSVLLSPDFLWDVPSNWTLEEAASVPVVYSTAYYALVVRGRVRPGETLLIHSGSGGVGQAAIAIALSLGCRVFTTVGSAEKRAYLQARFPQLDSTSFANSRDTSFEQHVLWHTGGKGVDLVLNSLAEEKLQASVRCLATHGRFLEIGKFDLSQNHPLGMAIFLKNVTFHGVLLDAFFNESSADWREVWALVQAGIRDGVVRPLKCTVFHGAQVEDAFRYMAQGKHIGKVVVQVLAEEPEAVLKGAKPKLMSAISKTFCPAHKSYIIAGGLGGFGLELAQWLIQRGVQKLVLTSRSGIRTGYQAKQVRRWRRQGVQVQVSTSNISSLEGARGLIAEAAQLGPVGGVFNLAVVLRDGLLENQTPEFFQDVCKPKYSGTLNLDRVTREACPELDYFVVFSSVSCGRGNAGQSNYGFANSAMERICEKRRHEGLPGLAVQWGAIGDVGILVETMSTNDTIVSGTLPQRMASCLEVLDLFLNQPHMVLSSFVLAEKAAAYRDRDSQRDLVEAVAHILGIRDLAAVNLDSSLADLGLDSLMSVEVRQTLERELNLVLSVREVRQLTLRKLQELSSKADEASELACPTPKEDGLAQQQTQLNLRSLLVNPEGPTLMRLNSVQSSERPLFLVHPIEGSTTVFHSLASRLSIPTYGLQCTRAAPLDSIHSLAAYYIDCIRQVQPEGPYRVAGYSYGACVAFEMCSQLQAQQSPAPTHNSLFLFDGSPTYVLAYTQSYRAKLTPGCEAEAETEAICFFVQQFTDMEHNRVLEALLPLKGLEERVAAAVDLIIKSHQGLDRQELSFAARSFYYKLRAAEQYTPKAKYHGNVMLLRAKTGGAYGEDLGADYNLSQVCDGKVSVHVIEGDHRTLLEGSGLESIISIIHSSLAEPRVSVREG
Method: After 20 minutes incubation at room temperature the plate was measured again (T2).
The decrease in absorbance was calculated as (Absorbance before incubation T1)−(Absorbance following incubation T2).
A plot of Controlmin versus test compound concentration was fitted to a 4-parameter logistic curve using a non-linear least squares regression method.

T1 sequence (P49327 whole entry): as the sequence (P49327 whole entry, the tested form may be a part) above

| Compound | inhibition at 10 µM [1] [%] | IC50 [1] [nM] | IC50 (A2780 ovarian cells [2]) [nM] | IC50 (A2780 ovarian cells [3]) [nM] | IC50 [4] [nM] | IC50 [5] [nM] |
| --- | --- | --- | --- | --- | --- | --- |
| Cn1nc(CO)c2cc(-c3ccc(C4=NC5(CC5)C(=O)N4CC4CN(C(=O)C5CC5)C4)cc3)ccc21 [compound 530, 6-{[1-(Cyclopropylcarbonyl)azetidin-3-yl]methyl}-5-{4-[3-(hydroxymethyl)-1-methyl-1H-indazol-5-yl]phenyl}-4,6-diazaspiro[2.4]hept-4-en-7-one] | 97 | 263 | > 10000 | 776 | 5130 | 2950 |
| O=C(C1CC1)N1CC(CN2C(=O)C3(CC3)N=C2c2ccc(-c3ccc4cncnc4c3)cc2)C1 [compound 543, 6-{[1-(Cyclopropylcarbonyl)azetidin-3-yl]methyl}-5-(4-quinazolin-7-ylphenyl)-4,6-diazaspiro[2.4]hept-4-en-7-one] | 97 | 145 | > 10000 | 141 | 2000 | 479 |
| Cn1ccc(-c2ccc(-c3ccc(C4=NC5(CC5)C(=O)N4CC4CN(C(=O)C5CC5)C4)c(F)c3)cc2)n1 [compound 547, 6-{[1-(Cyclopropylcarbonyl)azetidin-3-yl]methyl}-5-[3-fluoro-4′-(1-methyl-1H-pyrazol-3-yl)biphenyl-4-yl]-4,6-diazaspiro[2.4]hept-4-en-7-one] | 98 | 178 | 5890 | ~174 | 1000 | 676 |
| Cc1cc2cc(-c3ccc(C4=NC5(CC5)C(=O)N4CC4CN(C(=O)C5CC5)C4)c(F)c3)ccc2s1 [compound 548, 6-{[1-(Cyclopropylcarbonyl)azetidin-3-yl]methyl}-5-[2-fluoro-4-(2-methyl-1-benzothiophen-5-yl)phenyl]-4,6-diazaspiro[2.4]hept-4-en-7-one] | 88 | 162 | 6170 | ~295 | 1100 | 166 |
| COc1nn(C)c2ccc(-c3ccc(C4=NC5(CC5)C(=O)N4C[C@@H]4CCN(C(=O)C5CC5)C4)cc3)cc12 [compound 557, 6-{[(3R)-1-(Cyclopropylcarbonyl)pyrrolidin-3-yl]methyl}-5-[4-(3-methoxy-1-methyl-1H-indazol-5-yl)phenyl]-4,6-diazaspiro[2.4]hept-4-en-7-one] | 97 | 372 | 4790 | 200 | 1380 | 427 |
| Cc1cc(-c2ccc(C#N)cc2F)ccc1C1=NC2(CC2)C(=O)N1CC1CN(C(=O)C2(C)CC2)C1 [compound 580] | 108 | 123 | > 10000 | 56.2 | 759 | 603 |
| Cc1cc(-c2cccc(NC(=O)C3CC3)c2)ccc1C1=NC2(CC2)C(=O)N1C[C@@H]1CCN(C(=O)C2CC2)C1 [compound 614, N-[4′-(6-{[(3R)-1-(Cyclopropylcarbonyl)pyrrolidin-3-yl]methyl}-7-oxo-4,6-diazaspiro[2.4]hept-4-en-5-yl)-3′-methylbiphenyl-3-yl]cyclopropanecarboxamide] | 102 | 151 | > 10000 | 170 | 1350 | 309 |
| Cc1cc(-c2cccc(SC3CC3)c2)ccc1C1=NC2(CC2)C(=O)N1C[C@@H]1CCN(C(=O)C2CC2)C1 [compound 642, 6-{[(3R)-1-(Cyclopropylcarbonyl)pyrrolidin-3-yl]methyl}-5-[3′-(cyclopropylsulfanyl)-3-methylbiphenyl-4-yl]-4,6-diazaspiro[2.4]hept-4-en-7-one] | 99 | 219 | > 10000 | ~3800 | 6170 | 776 |
| Cn1cc2cc(-c3ccc(C4=NC5(CC5)C(=O)N4CC4CN(C(=O)C5CC5)C4)c(F)c3)ccc2n1 [compound 644, 6-{[1-(Cyclopropylcarbonyl)azetidin-3-yl]methyl}-5-[2-fluoro-4-(2-methyl-2H-indazol-5-yl)phenyl]-4,6-diazaspiro[2.4]hept-4-en-7-one] | 97 | 178 | > 10000 | 162 | 2820 | 1450 |
| N#Cc1ccc2sc(-c3ccc(C4=NC5(CC5)C(=O)N4CC4CN(C(=O)C5CC5)C4)c(F)c3)nc2c1 [compound 652, 2-[4-(6-{[1-(Cyclopropylcarbonyl)azetidin-3-yl]methyl}-7-oxo-4,6-diazaspiro[2.4]hept-4-en-5-yl)-3-fluorophenyl]-1,3-benzothiazole-5-carbonitrile] | 97 | 186 | > 6170 | 174 | 1200 | 347 |
| O=C(C1CC1)N1CC[C@@H](CN2C(=O)C3(CCOCC3)N=C2c2ccc(-c3ccc4occc4c3)cc2)C1 [compound 667, 2-[4-(1-Benzofuran-5-yl)phenyl]-3-{[(3R)-1-(cyclopropylcarbonyl)pyrrolidin-3-yl]methyl}-8-oxa-1,3-diazaspiro[4.5]dec-1-en-4-one] | 97 | 155 | > 10000 | ~1000 | 1780 | 339 |
| O=C([C@H]1CCCO1)N1CC(CN2C(=O)C3(CCOC3)N=C2c2ccc(-c3ccc4cccnc4c3)cc2)C1 (stereo partly drawn) [compound 716, 2-(4-Quinolin-7-ylphenyl)-3-({1-[(2R)-tetrahydro-furan-2-ylcarbonyl]azetidin-3-yl}methyl)-7-oxa-1,3-diazaspiro[4.4]non-1-en-4-one] | 88 | 398 | > 10000 | 513 | 5500 | 1050 |
| CC(C)N1CCC2(CC1)N=C(c1ccc(-c3ccc4[nH]ccc4c3)cc1)N(C[C@@H]1CCN(C(=O)C3CC3)C1)C2=O [compound 744, 3-{[(3R)-1-(Cyclopropylcarbonyl)pyrrolidin-3-yl]methyl}-2-[4-(1H-indol-5-yl)phenyl]-8-(1-methylethyl)-1,3,8-triazaspiro[4.5]dec-1-en-4-one] | 98 | 115 | > 10000 | ~214 | 851 | 251 |
| CS(=O)(=O)N1CCC2(CC1)N=C(c1ccc(-c3ccc4[nH]ccc4c3)cc1)N(C[C@@H]1CCN(C(=O)C3CC3)C1)C2=O [compound 745, 3-{[(3R)-1-(Cyclopropylcarbonyl)pyrrolidin-3-yl]methyl}-2-[4-(1H-indol-5-yl)phenyl]-8-(methylsulfonyl)-1,3,8-triazaspiro[4.5]dec-1-en-4-one] | 104 | 70.8 | > 10000 | 95.5 | 851 | 158 |
| O=C(C1CC1)N1CC[C@@H](CN2C(=O)C3(CCN(C(=O)C(F)(F)F)CC3)N=C2c2ccc(-c3ccc4[nH]ccc4c3)cc2)C1 [compound 751, 3-{[(3R)-1-(Cyclopropylcarbonyl)pyrrolidin-3-yl]methyl}-2-[4-(1H-indol-5-yl)phenyl]-8-(trifluoroacetyl)-1,3,8-triazaspiro[4.5]dec-1-en-4-one] | 98 | 135 | > 10000 | 89.1 | 724 | 166 |
